Results on 2 compounds are retold here after paper PMC10997755, “Discovery of a small-molecule inhibitor that traps Polθ on DNA and synergizes with PARP inhibitors” (Nature Communications, 2024).

Several values for one entry are separate records, joined by “and”; a condition that tells them apart may be missing. Identical values can stand only once. Entries after “also recorded” stand apart in the source; their conditions may differ.

Experiment [1] has as its target T1, recombinant human full-length Polθ (Fl-Polθ) (Homo sapiens, UniProt O75417).
T1 construct: recombinant human full-length Polθ (Fl-Polθ); made in house
Briefly: Fl-Polθ DNA/DNA primer extension. The experiment is classed as biochemical. The settings on record: 0.15-12 µM, gel.

Experiment [2] relates to PALB2 complemented EUFA1341 cells. In words: Clonogenic assay. Format: cell-based. The conditions noted are these: for Average (raw signal of wells) / Normalized (0 micro M = 100) / average - blank: per experiment. The gist of the method: (§1)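 Colony formation by BRCA-deficient, PALB2-mutant and wild-type cells (300–1000 cells/well) and MEFs (300 cells/well) over 10–12 days, medium changed every 2 days. Colonies fixed, stained with 0.5% crystal violet and counted; IC50 from 3 or more independent experiments.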

Experiment [3] relates to HCT116 Parental cells. Briefly: Clonogenic assay. The experiment is classed as cell-based. The settings on record: for Average number of colonies counted / Normalized colonies (% normalized to control): per experiment. The gist of the method: as §1
The test system of experiment [4] is EUFA1341 PALB2 mut cells. In words: Clonogenic assay. Format: cell-based. The gist of the method:
as §1

In experiment [5] the target is T2, Polθ-pol (Homo sapiens, UniProt O75417).
T2 construct: purified recombinant human Polθ-pol (comprising amino acid residues 1792–2590); made in house
T2 sequence (O75417 1792-2590): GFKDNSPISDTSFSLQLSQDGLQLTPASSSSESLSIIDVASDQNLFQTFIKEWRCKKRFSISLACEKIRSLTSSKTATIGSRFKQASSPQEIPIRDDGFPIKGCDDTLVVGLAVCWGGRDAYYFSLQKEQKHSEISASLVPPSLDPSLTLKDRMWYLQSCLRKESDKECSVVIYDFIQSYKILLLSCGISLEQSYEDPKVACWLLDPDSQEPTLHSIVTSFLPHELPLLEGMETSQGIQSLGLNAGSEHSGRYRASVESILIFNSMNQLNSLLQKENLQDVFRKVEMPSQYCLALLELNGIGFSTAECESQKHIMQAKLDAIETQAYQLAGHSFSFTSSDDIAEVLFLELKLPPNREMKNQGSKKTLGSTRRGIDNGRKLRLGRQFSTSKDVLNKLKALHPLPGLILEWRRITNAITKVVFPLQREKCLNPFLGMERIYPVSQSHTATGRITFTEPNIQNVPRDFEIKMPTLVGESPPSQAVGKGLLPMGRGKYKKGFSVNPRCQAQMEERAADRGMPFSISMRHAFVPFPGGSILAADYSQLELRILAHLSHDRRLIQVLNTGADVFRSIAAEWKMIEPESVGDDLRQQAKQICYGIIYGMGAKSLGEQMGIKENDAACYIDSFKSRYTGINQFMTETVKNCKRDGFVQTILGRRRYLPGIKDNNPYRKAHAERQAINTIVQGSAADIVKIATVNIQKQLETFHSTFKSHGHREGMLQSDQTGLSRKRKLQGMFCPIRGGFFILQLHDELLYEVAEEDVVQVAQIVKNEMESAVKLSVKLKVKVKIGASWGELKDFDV
In words: Primer extension by recombinant Pols (selectivity). The experiment is classed as biochemical.

Experiment [6] deals with T3, Polκ (Homo sapiens, UniProt Q9UBT6).
T3 construct: gift: Dr. Arora (Fox Chase Cancer Center)
T3 sequence (Q9UBT6 1-870): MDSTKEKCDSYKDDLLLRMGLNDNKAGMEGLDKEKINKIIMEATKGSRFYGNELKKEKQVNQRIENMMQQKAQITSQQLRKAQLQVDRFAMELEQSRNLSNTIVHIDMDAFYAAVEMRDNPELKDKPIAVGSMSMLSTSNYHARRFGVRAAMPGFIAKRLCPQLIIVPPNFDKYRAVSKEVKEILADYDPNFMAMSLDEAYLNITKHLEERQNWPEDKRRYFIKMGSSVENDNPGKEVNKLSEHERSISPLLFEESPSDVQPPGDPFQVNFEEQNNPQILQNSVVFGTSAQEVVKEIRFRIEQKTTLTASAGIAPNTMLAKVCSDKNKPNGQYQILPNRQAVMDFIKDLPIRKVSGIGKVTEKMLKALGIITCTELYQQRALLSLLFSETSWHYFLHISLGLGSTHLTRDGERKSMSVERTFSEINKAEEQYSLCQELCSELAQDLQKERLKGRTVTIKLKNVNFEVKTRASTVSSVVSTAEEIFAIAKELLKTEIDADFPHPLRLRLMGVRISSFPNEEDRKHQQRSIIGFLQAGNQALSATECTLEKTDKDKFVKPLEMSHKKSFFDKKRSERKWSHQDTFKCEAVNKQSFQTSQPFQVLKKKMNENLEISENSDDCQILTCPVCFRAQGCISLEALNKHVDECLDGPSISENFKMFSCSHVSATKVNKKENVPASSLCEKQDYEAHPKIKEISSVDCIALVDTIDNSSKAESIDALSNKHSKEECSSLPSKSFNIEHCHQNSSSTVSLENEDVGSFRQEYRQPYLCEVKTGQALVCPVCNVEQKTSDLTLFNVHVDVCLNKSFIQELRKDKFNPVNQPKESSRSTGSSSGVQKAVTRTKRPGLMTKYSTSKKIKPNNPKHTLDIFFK
Briefly: Primer extension by recombinant Pols (selectivity). Format: biochemical.

T1 sequence (O75417 whole entry): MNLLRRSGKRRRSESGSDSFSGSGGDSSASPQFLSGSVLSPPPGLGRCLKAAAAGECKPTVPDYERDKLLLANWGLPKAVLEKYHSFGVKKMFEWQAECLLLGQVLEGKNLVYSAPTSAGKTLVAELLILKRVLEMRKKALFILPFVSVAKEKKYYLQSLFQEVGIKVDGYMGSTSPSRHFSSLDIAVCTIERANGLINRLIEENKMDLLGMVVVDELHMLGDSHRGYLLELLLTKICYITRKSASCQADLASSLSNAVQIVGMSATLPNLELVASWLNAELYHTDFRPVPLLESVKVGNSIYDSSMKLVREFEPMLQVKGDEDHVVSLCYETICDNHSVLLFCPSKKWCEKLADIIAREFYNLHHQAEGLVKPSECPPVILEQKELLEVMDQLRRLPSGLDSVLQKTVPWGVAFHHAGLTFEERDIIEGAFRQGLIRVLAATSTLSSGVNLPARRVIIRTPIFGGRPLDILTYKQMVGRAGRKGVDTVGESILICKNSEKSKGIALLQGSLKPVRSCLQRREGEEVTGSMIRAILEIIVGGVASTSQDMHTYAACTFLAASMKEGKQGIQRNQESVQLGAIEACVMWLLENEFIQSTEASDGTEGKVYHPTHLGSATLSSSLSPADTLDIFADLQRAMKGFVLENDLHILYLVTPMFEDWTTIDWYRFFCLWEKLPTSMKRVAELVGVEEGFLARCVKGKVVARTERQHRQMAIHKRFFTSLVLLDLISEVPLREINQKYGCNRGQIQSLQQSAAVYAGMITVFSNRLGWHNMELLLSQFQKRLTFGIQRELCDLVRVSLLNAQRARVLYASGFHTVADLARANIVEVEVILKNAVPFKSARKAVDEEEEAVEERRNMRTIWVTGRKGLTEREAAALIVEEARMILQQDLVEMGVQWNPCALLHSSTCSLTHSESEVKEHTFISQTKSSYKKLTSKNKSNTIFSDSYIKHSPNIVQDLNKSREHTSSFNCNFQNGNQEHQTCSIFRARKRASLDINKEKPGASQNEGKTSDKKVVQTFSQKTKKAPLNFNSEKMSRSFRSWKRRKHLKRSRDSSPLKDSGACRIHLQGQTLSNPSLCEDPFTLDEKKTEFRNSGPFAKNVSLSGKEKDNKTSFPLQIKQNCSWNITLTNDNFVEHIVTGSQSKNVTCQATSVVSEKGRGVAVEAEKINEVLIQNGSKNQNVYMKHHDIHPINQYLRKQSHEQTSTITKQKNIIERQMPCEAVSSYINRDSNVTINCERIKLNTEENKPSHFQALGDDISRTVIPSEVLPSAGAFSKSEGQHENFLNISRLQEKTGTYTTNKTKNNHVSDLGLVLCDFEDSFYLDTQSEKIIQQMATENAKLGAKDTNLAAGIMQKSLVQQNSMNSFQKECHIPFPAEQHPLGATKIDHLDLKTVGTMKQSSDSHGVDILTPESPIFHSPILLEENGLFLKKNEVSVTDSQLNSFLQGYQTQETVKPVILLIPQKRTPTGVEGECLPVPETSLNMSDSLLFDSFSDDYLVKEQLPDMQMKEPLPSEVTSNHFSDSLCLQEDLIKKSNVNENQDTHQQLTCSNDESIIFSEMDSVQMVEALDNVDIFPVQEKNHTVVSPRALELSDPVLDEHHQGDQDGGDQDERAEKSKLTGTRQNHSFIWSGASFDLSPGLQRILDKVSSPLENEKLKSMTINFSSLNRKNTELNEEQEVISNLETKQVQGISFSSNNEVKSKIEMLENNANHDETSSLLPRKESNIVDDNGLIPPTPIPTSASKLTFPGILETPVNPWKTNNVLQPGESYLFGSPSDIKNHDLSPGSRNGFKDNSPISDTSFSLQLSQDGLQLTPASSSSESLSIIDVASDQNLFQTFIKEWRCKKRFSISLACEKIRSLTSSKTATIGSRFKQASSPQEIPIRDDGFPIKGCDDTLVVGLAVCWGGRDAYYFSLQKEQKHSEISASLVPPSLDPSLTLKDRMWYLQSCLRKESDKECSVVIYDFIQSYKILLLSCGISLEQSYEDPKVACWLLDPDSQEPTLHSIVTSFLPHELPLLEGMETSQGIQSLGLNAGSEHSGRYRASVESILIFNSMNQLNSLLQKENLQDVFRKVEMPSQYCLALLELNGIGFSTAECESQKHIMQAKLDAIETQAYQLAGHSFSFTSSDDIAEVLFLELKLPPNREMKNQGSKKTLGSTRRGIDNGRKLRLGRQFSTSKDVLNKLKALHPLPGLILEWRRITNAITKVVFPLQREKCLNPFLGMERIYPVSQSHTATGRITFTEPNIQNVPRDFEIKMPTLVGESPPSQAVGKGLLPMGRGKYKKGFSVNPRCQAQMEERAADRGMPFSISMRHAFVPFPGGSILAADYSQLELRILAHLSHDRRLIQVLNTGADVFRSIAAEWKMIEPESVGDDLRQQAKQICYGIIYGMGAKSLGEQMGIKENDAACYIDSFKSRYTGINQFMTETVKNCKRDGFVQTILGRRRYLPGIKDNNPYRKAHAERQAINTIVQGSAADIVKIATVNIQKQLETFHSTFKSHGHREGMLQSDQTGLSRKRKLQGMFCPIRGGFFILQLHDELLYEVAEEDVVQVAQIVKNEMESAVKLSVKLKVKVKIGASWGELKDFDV

On to `CN(C(=O)Oc1ccc(C(F)(F)F)cc1C(F)(F)F)c1ccc(F)cc1` [MC160385], for which the “inhibition of Fl-Polθ DNA synthesis activity” value in experiment [1] is “inhibits; also recorded: inhibition”.
Take `CN(C(=O)Oc1c(N2CCN(CCO)C2=O)cc(C(F)(F)F)cc1C(F)(F)F)c1ccc(F)cc1` [RTx-161]: the “activity against PALB2 complemented EUFA1341 cells” value in experiment [2] is reported as “little to no activity”. Moreover, the “Average (raw signal of wells)” value in experiment [2] (RTX-161 2.5 micro M) was 1.026 and 0.9713 and 0.6573; in experiment [2] (RTX-161 5 micro M) it was 1.035 and 0.9992; in experiment [2] (RTX-161 10 micro M), 0.6121 and 1.137 and 1.058; in experiment [4] (RTX-161 10 micro M, per experiment), 0.37 and 0.6469 and 0.6018. Further, the “Normalized (0 micro M = 100)” value in experiment [2] (RTX-161 2.5 micro M) is 116.435% and 111.613% and 105.551%; in experiment [2] (RTX-161 5 micro M), 117.788% and 115.651% and 105.551%; in experiment [2] (RTX-161 10 micro M), 96.1382% and 132.128% and 124.139%; in experiment [4] (RTX-161 2.5 micro M, per experiment), 67.9566% and 76.5823% and 64.8427%; in experiment [4] (RTX-161 5 micro M, per experiment) it was 50.4887% and 55.1827% and 45.6779%. Also, the average - blank in experiment [2] (RTX-161 2.5 micro M) was 0.8256 and 0.7713 and 0.5073; in experiment [2] (RTX-161 5 micro M), 0.8352 and 0.7992 and 0.5073. In addition, the “effect in BRCA2-WT cells” value in experiment [3] (HCT116, colony survival) is “little to no effect”. Further, the “Normalized colonies, pooled Average of 3 experiments” value in experiment [3] (RTX-161 0.5 micro M) turned out to be 101.74%; in experiment [3] (RTX-161 1 micro M) it was 98.8027%; in experiment [3] (RTX-161 2 micro M), 97.4337%; in experiment [3] (RTX-161 4 micro M) it was 97.4186%; in experiment [3] (RTX-161 8 micro M), 96.7852%. Moreover, the “Average number of colonies counted” value in experiment [3] (RTX-161 0.5 micro M) was 118 and 67.6667 and 68.6667; in experiment [3] (RTX-161 1 micro M) it was 114.333 and 64.6667 and 68; in experiment [3] (RTX-161 2 micro M), 112.667 and 59.6667 and 71.6667; in experiment [3] (RTX-161 4 micro M), 107.667 and 62 and 72; in experiment [3] (RTX-161 8 micro M) it was 104.667 and 63 and 71.3333. For the same compound, the “Normalized colonies (% normalized to control)” value in experiment [3] (RTX-161 0.5 micro M) is 99.7183% and 107.407% and 98.0952%; in experiment [3] (RTX-161 1 micro M), 96.6197% and 102.646% and 97.1429%; in experiment [3] (RTX-161 2 micro M) it was 95.2113% and 94.709% and 102.381%; in experiment [3] (RTX-161 4 micro M), 90.9859% and 98.4127% and 102.857%; in experiment [3] (RTX-161 8 micro M), 88.4507% and 100% and 101.905%. In addition, the “survival of PALB2-mutant EUFA1341 cells” value in experiment [4] is “significant reduction in the survival”. For the same compound, the IC50 (as a rule, the concentration needed to halve the response being measured) in experiment [4] (EUFA1341 cells, label beside PALB2-mut curve, read-out: IC50 clonogenic survival) is around 5 µM. Moreover, the “% Full Extension” value in experiment [5] (Pol Theta) was determined as 14.28%; in experiment [6] (Pol Kappa), 89.30%. In addition, the “% Inhibition Compared to Control” value in experiment [5] (Pol Theta) was determined as 85.17%; in experiment [6] (Pol Kappa), 0.85%. The “% Relative Maximum Extension” value in experiment [5] (Pol Theta) was 14.83%; in experiment [6] (Pol Kappa) it was 99.15%. The “inhibition of primer extension” value is recorded as “selective inhibition” in experiment [5] (selectivity panel) and “no inhibition” in experiment [6] (selectivity panel, Pol named in Supplementary Fig. 1h).
